Active and inactive are the calls of the source. No cut-off for these calls is given here.
Experiments:
[1] = The compound was tested for neurologic toxicity (rotarod) test for 4 hours in mice; no activity or no toxicity at 300 mg/kg; assay type: organism-based; design: dose 300 mg/kg; settings: mouse, in vivo
[2] = The compound was tested for neurologic toxicity (rotarod) test for 30 min in mice; active at 300 mg/kg; assay type: organism-based; design: dose 300 mg/kg; settings: mouse, in vivo, 0.5 h
Mus musculus [3] = experiment: Anticonvulsant activity in subcutaneous pentylenetetrazole seizure test for 30 min in mice; No activity/toxicity at 300 mg/kg.; assay type: functional, organism-based; design: dose 300 mg/kg
Mus musculus [4] = experiment: The anticonvulsant activity in subcutaneous pentylenetetrazole seizure test (sc Met) for 4 hr in mice; no activity or no toxicity at 300 mg/kg; assay type: functional, organism-based; design: dose 300 mg/kg
Mus musculus [5] = experiment: The compound was tested for anticonvulsant activity in Maximal electroshock seizure test (MES) for 4 hr in mice(ip); no activity or toxicity at 300 mg/kg; assay type: functional, organism-based; design: dose 300 mg/kg
Mus musculus [6] = experiment: Anticonvulsant activity in Maximal electroshock seizure test at 100 mg/kg i.p. in mice.; assay type: functional, organism-based; design: dose 100 mg/kg
Mus musculus [7] = experiment: The compound was tested for anticonvulsant activity in Maximal electroshock seizure test (MES) for 4 hr in mice(ip); active at 300 mg/kg; assay type: functional, organism-based; design: dose 300 mg/kg
[8] = The compound was tested for neurologic toxicity (rotarod) test for 30 min in mice; active at 100 mg/kg; assay type: organism-based; design: dose 100 mg/kg; settings: mouse, in vivo, 0.5 h
[9] = The compound was tested for neurologic toxicity (rotarod) test for 4 hours in mice; active at 300 mg/kg; assay type: organism-based; design: dose 300 mg/kg; settings: mouse, in vivo
Mus musculus [10] = experiment: The compound was tested for anticonvulsant activity in Maximal electroshock seizure test for 30 min in mice(ip); active at 30 mg/kg; assay type: functional, organism-based; design: dose 30 mg/kg
[11] = The compound was tested for neurologic toxicity (rotarod) test for 30 min in mice; active at 30 mg/kg; assay type: organism-based; design: dose 30 mg/kg; settings: mouse, in vivo, 0.5 h
[12] = The compound was tested for neurologic toxicity (rotarod) test for 30 min in mice; no activity or no toxicity at 300 mg/kg; assay type: organism-based; design: dose 300 mg/kg; settings: mouse, in vivo, 0.5 h
[13] = (§1) The compound was determined for the dose (mg/kg) by rotarod test at the time of peak neurotoxic effect in mice on ip administration.; assay type: ADME, organism-based; settings: mouse, in vivo
[14] = molecular target: Sigma non-opioid intracellular receptor 1 (Homo sapiens) (UniProt Q99720); experiment: Ratio between the Ki(nM)values of sigma-2 and sigma-1; assay type: functional
Sigma 2 receptor = experiment: Affinity on sigma 2 receptor using [3H]- DTG as radioligand
Mus musculus [15] = experiment: Inhibition of s.c. pentylenetetrazole induced seizure in mice following i.p. administration.; assay type: functional
[16] = The compound was tested for time of peak effect (TPE) in hours for its toxicity in mice on ip administration.; assay type: organism-based; settings: mouse, in vivo
Mus musculus [17] = experiment: Time of peak effect in mice following i.p. administration.; assay type: functional
Mus musculus [18] = experiment: The compound was tested to inhibit 50% of induced maximal electroshock seizure in mice on ip administration.; assay type: functional
Mus musculus [19] = experiment: The compound was tested to inhibit 50% of induced maximal electroshock seizure in mice on ip administration; assay type: functional
Mus musculus [20] = experiment: The compound was tested for anticonvulsant activity in Maximal electroshock seizure test (MES) for 4 hr in mice(ip); active at 100 mg/kg; assay type: functional, organism-based; design: dose 100 mg/kg
Mus musculus [21] = experiment: as §1; assay type: functional
Mus musculus [22] = experiment: The compound was tested for anticonvulsant activity in subcutaneous pentylenetetrazole seizure test (sc Met) for 30 min in mice; active at 100 mg/kg; assay type: functional, organism-based; design: dose 100 mg/kg
Mus musculus [23] = experiment: The compound was tested for anticonvulsant activity in subcutaneous pentylenetetrazole seizure test (sc Met) for 30 min in mice; active at 300 mg/kg; assay type: functional, organism-based; design: dose 300 mg/kg

Chain of Sigma non-opioid intracellular receptor 1 (Homo sapiens) (Q99720 whole entry): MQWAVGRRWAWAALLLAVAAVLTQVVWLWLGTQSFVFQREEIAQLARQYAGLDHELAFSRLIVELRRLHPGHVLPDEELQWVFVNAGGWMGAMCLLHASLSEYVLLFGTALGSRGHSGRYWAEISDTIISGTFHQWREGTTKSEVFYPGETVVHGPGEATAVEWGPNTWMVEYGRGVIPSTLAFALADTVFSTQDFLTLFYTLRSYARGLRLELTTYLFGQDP

## O=c1[nH]c2ccccc2o1 [BENZOXAZOLINONE]
[1]
  Rotarod toxicity: active at 300 mg/kg
[2]
  Rotarod toxicity: active at 300 mg/kg
Mus musculus [3]
  scMet: No activity or no toxicity at 300 mg/kg
Mus musculus [4]
  scMet: No activity or no toxicity at 300 mg/kg
Mus musculus [5]
  MES: No activity or toxicity at 300 mg/kg
Mus musculus [6]
  MES: No activity or toxicity at 300 mg/kg

## CCCCC(=O)c1ccc2c(c1)sc(=O)n2CCN1CCOCC1
Mus musculus [7]
  MES: active at 300 mg/kg
[8]
  Rotarod toxicity: active at 100 mg/kg
Mus musculus [3]
  scMet: No activity or no toxicity at 300 mg/kg
Mus musculus [4]
  scMet: No activity or no toxicity at 300 mg/kg
[9]
  Rotarod toxicity: active at 100 mg/kg
Mus musculus [6]
  MES: active at 300 mg/kg

## CCC(=O)c1ccc2c(c1)sc(=O)n2CCCN1CCCCC1
[1]
  Rotarod toxicity: active at 30 mg/kg
Mus musculus [10]
  MES: active at 30 mg/kg
Mus musculus [3]
  scMet: No activity or no toxicity at 300 mg/kg
Mus musculus [4]
  scMet: No activity or no toxicity at 300 mg/kg
Mus musculus [5]
  MES: active at 30 mg/kg
[11]
  Rotarod toxicity: active at 30 mg/kg

## O=C(c1ccccc1)c1ccc2nc(O)oc2c1
[12]
  Rotarod toxicity: No activity or no toxicity at 300 mg/kg
[1]
  Rotarod toxicity: No activity or no toxicity at 300 mg/kg
Mus musculus [3]
  scMet: No activity or no toxicity at 300 mg/kg
Mus musculus [4]
  scMet: No activity or no toxicity at 300 mg/kg
Mus musculus [5]
  MES: No activity or toxicity at 300 mg/kg
Mus musculus [6]
  MES: No activity or toxicity at 300 mg/kg

## CCCCC(=O)c1ccc2c(c1)sc(=O)n2CCN(C)C
[1]
  Rotarod toxicity: active at 100 mg/kg
[13]
  TD50: 61.5 mg/kg
[14]
  Ratio: 7
[8]
  Rotarod toxicity: active at 100 mg/kg
Mus musculus [10]
  MES: active at 30 mg/kg
Sigma 2 receptor
  Ki: 4.61 µM
Mus musculus [15]
  ED50: > 70 mg/kg
[16]
  Toxicity: 0.25 h
Mus musculus [17]
  Activity: 0.25 h
Mus musculus [3]
  scMet: No activity or no toxicity at 300 mg/kg
Mus musculus [18]
  ED50: 27.3 mg/kg
Mus musculus [4]
  scMet: No activity or no toxicity at 300 mg/kg
Mus musculus [5]
  MES: active at 30 mg/kg

## O=c1oc2cc(Cc3ccccc3)ccc2n1CCN1CCOCC1
[1]
  Rotarod toxicity: active at 300 mg/kg
[14]
  Ratio: 7
[2]
  Rotarod toxicity: active at 300 mg/kg
Mus musculus [19]
  ED50: 87 mg/kg
Mus musculus [20]
  MES: active at 100 mg/kg
Sigma 2 receptor
  Ki: 0.515 µM
Mus musculus [15]
  ED50: > 225 mg/kg
[16]
  Toxicity: 1 h
Mus musculus [17]
  Activity: 1 h
Mus musculus [3]
  scMet: No activity or no toxicity at 300 mg/kg
Mus musculus [21]
  TD50: 194 mg/kg
Mus musculus [4]
  scMet: No activity or no toxicity at 300 mg/kg
Mus musculus [6]
  MES: active at 100 mg/kg

## CCC(=O)c1ccc2c(c1)oc(=O)n2C
[1]
  Rotarod toxicity: active at 100 mg/kg
[8]
  Rotarod toxicity: active at 100 mg/kg
Mus musculus [22]
  scMet: active at 100 mg/kg
Mus musculus [4]
  scMet: active at 100 mg/kg
Mus musculus [5]
  MES: No activity or toxicity at 300 mg/kg
Mus musculus [6]
  MES: No activity or toxicity at 300 mg/kg

## CCC(=O)c1ccc2c(c1)sc(=O)n2CCN1CCOCC1
[1]
  Rotarod toxicity: active at 100 mg/kg
[8]
  Rotarod toxicity: active at 100 mg/kg
Mus musculus [23]
  scMet: active at 300 mg/kg
Mus musculus [15]
  ED50: > 300 mg/kg
[16]
  Toxicity: 0.25 h
Mus musculus [17]
  Activity: 0.25 h
Mus musculus [18]
  ED50: 62.1 mg/kg
Mus musculus [21]
  TD50: 239 mg/kg
Mus musculus [4]
  scMet: active at 300 mg/kg
Mus musculus [5]
  MES: No activity or toxicity at 300 mg/kg
Mus musculus [6]
  MES: No activity or toxicity at 300 mg/kg

## Cn1c(=O)oc2cc(C(=O)c3ccccc3)ccc21
[12]
  Rotarod toxicity: No activity or no toxicity at 300 mg/kg
[1]
  Rotarod toxicity: No activity or no toxicity at 300 mg/kg
Mus musculus [23]
  scMet: active at 300 mg/kg
Mus musculus [4]
  scMet: active at 300 mg/kg
Mus musculus [5]
  MES: No activity or toxicity at 300 mg/kg
Mus musculus [6]
  MES: No activity or toxicity at 300 mg/kg

## CCCCC(=O)c1ccc2c(c1)oc(=O)n2CCN1CCCCC1
[1]
  Rotarod toxicity: active at 100 mg/kg
[8]
  Rotarod toxicity: active at 100 mg/kg
Mus musculus [3]
  scMet: No activity or no toxicity at 300 mg/kg
Mus musculus [4]
  scMet: No activity or no toxicity at 300 mg/kg
Mus musculus [5]
  MES: No activity or toxicity at 300 mg/kg
Mus musculus [6]
  MES: No activity or toxicity at 300 mg/kg

## CN(C)CCn1c(=O)oc2cc(C(=O)c3ccccc3)ccc21
[12]
  Rotarod toxicity: active at 300 mg/kg
[13]
  TD50: 99 mg/kg
Mus musculus [7]
  MES: active at 300 mg/kg
[14]
  Ratio: > 27
Sigma 2 receptor
  Ki: > 10 µM
Mus musculus [15]
  ED50: > 120 mg/kg
[16]
  Toxicity: 0.25 h
Mus musculus [17]
  Activity: 0.25 h
Mus musculus [3]
  scMet: No activity or no toxicity at 300 mg/kg
Mus musculus [18]
  ED50: 84.4 mg/kg
Mus musculus [4]
  scMet: No activity or no toxicity at 300 mg/kg
[9]
  Rotarod toxicity: active at 300 mg/kg
Mus musculus [6]
  MES: active at 300 mg/kg
